The assay has as its system inflammation induced by tetradecanoyl phorbol acetate (TPA), ears of mice. In words: TPA model: inhibition of tetradecanoyl phorbol acetate (TPA)-induced ear swelling (edema) in mice. Particulars: Mus musculus, topical, 4 h, applied to the ears in a vehicle such as acetone, edema measured four hours later, read-out: % inhibition of control swelling. Type of assay: in vivo. The arrangement: dose or concentration left out as unconfirmed. From the text:
One such model is inflammation induced by tetradecanoyl phorbol acetate (TPA), modified from the method of Kuehl et al., Nature, 1977, 265, 170; and Van Arman, Clin. Pharmacol. Ther., 1974, 16, 900. The TPA model mimics many of the inflammatory changes which occur in human diseases such as psoriasis, since elevated levels of inflammatory arachidonic acid metabolites are found and an influx of polymorphonuclear leukocytes is observed.
The test procedure used to evaluate the compounds of formula (I) is as follows: the test compound […] was applied to the ears of mice in an appropriate vehicle, such as acetone, and then TPA, the inflammatory stimulus was applied to the right ear. Four hours later, the edema was measured by removing standard size discs from the ears using a biopsy punch. The weights of the ears were determined, and the suppression of the swelling observed in animals not treated with the test compound was determined.
Regarding `OC(Cn1ccnc1)(c1ccc(F)cc1)c1cccc(-c2ccccn2)c1` (centres unmarked) [Example 6], the inhibition in vivo is 61%.
The value for `OC(Cn1ccnc1)(c1ccc(F)cc1)c1cccc(-c2cccnc2)c1` (centres unmarked) [Example 7] was 64%; that for `OC(Cn1ccnc1)(c1ccc(-c2ccccn2)cc1)c1ccc(F)cc1F` (centres unmarked) [Example 2] was 51%.
The value for `OC(Cn1ccnc1)(c1ccc(-c2cccnc2)cc1)c1ccc(F)cc1F` (centres unmarked) [Example 4] was 52%.
The value for `OC(Cn1ccnc1)(c1ccc(Cl)cc1)c1ccc(-c2ccncc2)cc1` (centres unmarked) [Example 22, 1-(4-chlorophenyl)-1-[4-(4-pyridyl)phenyl]-2-(1-imidazolyl)ethanol] was 79%; that for `OC(Cn1ccnc1)(c1ccc(F)cc1)c1ccc(-c2ccncc2)cc1` (centres unmarked) [Example 1, 1-(4-fluorophenyl)-1-[4-(4-pyridyl)phenyl]-2-(1-imidazolyl)ethanol] was 72%; that for `OC(Cn1ccnc1)(c1ccc(F)cc1)c1cccc(-c2ccncc2)c1` (centres unmarked) [Example 8, 1-(4-fluorophenyl)-1-[3-(4-pyridyl)phenyl]-2-(1-imidazolyl)ethanol] was 69%.
On to `OC(Cn1ccnc1)(c1ccccc1)c1ccc(-c2ccncc2)cc1` (centres unmarked) [Example 9], for which the inhibition in vivo was determined as 46%.
The value for `COc1ccc(C(O)(Cn2ccnc2)c2ccc(-c3ccncc3)cc2)cc1` (centres unmarked) [Example 12, 1-(4-methoxyphenyl)-1-[4-(4-pyridyl)phenyl]-2-(1-imidazolyl)ethanol] was 74%; that for `OC(Cn1ccnc1)(c1ccc(-c2ccncc2)cc1)c1ccc(C(F)(F)F)cc1` (centres unmarked) [Example 21, 1-(4-trifluoromethylphenyl)-1-[4-(4-pyridyl)phenyl]-2-(1-imidazolyl)ethanol] was 66%.
Regarding `OC(Cn1ccnc1)(c1ccc(-c2ccncc2)cc1)c1ccccc1Cl` (centres unmarked) [Example 10], the inhibition in vivo was determined as 63%.
`Cc1ccc(C(O)(Cn2ccnc2)c2ccc(-c3ccncc3)cc2)cc1` (centres unmarked) [Example 11, 1-(4-methylphenyl)-1-[4-(4-pyridyl)phenyl]-2-(1-imidazolyl)ethanol]: the inhibition in vivo is 62%.
The value for `OC(Cn1ccnc1)(c1ccc(F)cc1)c1ccc(-c2ccccn2)cc1` (centres unmarked) [Example 3] was 63%.
The value for `OC(Cn1ccnc1)(c1ccc(-c2ccncc2)cc1)c1ccc(F)cc1F` (centres unmarked) [Example 5, 1-(2,4-difluorophenyl)-1-[4-(4-pyridyl)phenyl]-2-(1-imidazolyl)ethanol] was 73%.
